Test results reported in US4075332A (priority 1976, dated 1978).
Where two headings read alike, the source gives them in different places.

Experiments:
[1] = Thermal stability of products (GC / nmr observation); type: physicochemical; settings: for thermal stability: general statement
From the text: The corresponding primary alkyl derivatives such as the S'-n-propyl compound are stable under similar conditions.
The ethyl sulfinylmethyl product was unstable at room temperature.

Southern army worm [2] = assay: whole plant or invertebrate; settings: Spodoptera eridania; for mortality at 50 ppm / mortality at 100 ppm: read-out: Mortality of Southern Armyworm, %; for mortality at 250 ppm: read-out: Mortality, % - Southern ArmyWorm
Southern army worm [3] = settings: in vivo; for Southern Army Worm Mortality, %: southern armyworm
Mexican bean beetle = assay: whole plant or invertebrate; settings: Epilachna varivestis; for mortality at 100 ppm / mortality at 50 ppm: read-out: Mexican Bean Beetle Larvae Mortality, %
bovine cholinesterase = bovine cholinesterase (Bos taurus, UniProt P23795); assay: biochemical; type: biochemical
Chain of bovine cholinesterase (P23795-2 with tags, fused parts or gaps limits assumed): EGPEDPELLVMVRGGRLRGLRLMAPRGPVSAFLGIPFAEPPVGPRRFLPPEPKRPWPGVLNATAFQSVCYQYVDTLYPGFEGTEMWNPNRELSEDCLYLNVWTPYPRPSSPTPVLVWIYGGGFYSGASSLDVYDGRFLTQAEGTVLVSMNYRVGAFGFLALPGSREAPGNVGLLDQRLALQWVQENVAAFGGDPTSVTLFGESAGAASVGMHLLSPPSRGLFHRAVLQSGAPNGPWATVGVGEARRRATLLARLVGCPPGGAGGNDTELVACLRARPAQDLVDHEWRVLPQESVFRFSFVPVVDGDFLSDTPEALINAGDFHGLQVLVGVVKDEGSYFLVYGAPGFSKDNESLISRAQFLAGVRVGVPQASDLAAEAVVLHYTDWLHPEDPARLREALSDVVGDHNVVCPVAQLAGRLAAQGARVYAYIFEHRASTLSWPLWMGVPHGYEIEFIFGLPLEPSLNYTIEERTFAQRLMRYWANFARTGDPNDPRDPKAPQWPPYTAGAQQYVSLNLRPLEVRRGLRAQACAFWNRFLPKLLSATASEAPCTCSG

House fly = assay: whole plant or invertebrate; settings: Musca domestica, 48 h; for mortality at 20 ppm: read-out: House Fly Spray Mortality, % (at 20 ppm); for mortality at 250 ppm: read-out: Mortality, % - House Flies
Root-knot nematode = settings: in vivo
Corn rootworm larvae [4] = assay: whole plant or invertebrate; settings: soil, 120 h, read-out: Corn Rootworm Larvae Mortality, % (at 2.5 ppm)
Corn earworm = assay: Field control of corn earworm (Example 27); type: in vivo; settings: Table XV; 1 lbs/acre; untreated check 45
From the text: Spring Gold sween corn was planted on March 21. Each treatment was made on a 48 ft. row and was replicated three times. Ratings represent the total counts from all three replicates. Except for insecticide treatment the plots were managed according to recommended farming practice for the area. Application of the experimental compositions at the 1 lb. active ingredient per acre were made and readings were made to determine the number of infested corn ears.

Spider mites [5] = assay: whole plant or invertebrate; settings: Tetranychus urticae, 48 h, read-out: Mortality, % - Spider Mites Contact
Lone Star Ticks = assay: Animal systemic insecticide test in guinea pigs, lone star tick nymphs; type: in vivo, lone star tick (host: guinea pig); settings: Cavia porcellus, 24 h, Table XI, read-out: Lowest Dosage (mg/kg) Causing Complete Kill of Nymphs of Lone Star Ticks
Description: (§1) The experimental compounds, formulated as 5% solutions in Tween 20, were administered orally and subcutaneously to guonea pigs which have been artificially infested with nymphs of the lone star tick at 48 hours before treatment, larvae of the secondary screw worm and of the black blow fly at 24 hours before treatment. Mortality was observed 24 hours after the treatment. For the details of the techniques, reference is made to the publications of R. O. Drummond in the Journal of Economic Entomology, particularly in Vol. 60, pages 733-737 in 1967.

Spider mites [6] = assay: Mite, Systemic; type: in vivo, two-spotted mite; settings: Tetranychus urticae, read-out: Mortality, % - Spider Mites Systemic
Description: (§2) In the insecticidal and miticidal tests, the experimental compounds were tested as aqueous emulsions. These emulsions were prepared by dissolving the compound in acetone and dispersing it in distilled water with Triton X-100, an alkylaryl polyether alcohol derived by the reaction of i-octylphenol with ethylene oxide, to give spray emulsions containing the desired concentrations of the compound. These emulsions were then used in standard laboratory tests described below.
Mite, Systemic: Bean plants infested with the two-spotted mites were treated by applying 20 ml. of the formulated test chemical to the soil.

Bean aphids [7] = assay: whole plant or invertebrate; settings: Aphis fabae, 48 h, read-out: Mortality, % - Bean Aphids Contact
in vivo = settings: rat, po
Black Blow Flies = assay: Animal systemic insecticide test in guinea pigs, black blow fly larvae; type: in vivo, black blow fly (host: guinea pig); settings: Calliphoridae, in Cavia porcellus, 24 h, Table XI, read-out: Lowest Dosage (mg/kg) Causing Complete Kill of Larvae of Black Blow Flies
Description: as §1

Bean aphids [8] = assay: Aphid, Systemic; type: in vivo, bean aphid; settings: Aphis fabae, 48 h, read-out: Mortality, % - Bean Aphids Systemic
Description: as §2
Aphid, Systemic: Nasturtium plants infested with the bean aphid were treated by applying 20 ml. of the formulated test chemical to the soil. The degree of aphid control was rated after 2 days.

Secondary Screw Worms = assay: Animal systemic insecticide test in guinea pigs, secondary screw worm larvae; type: in vivo, secondary screw worm (host: guinea pig); settings: Cavia porcellus, 24 h, Table XI, read-out: Lowest Dosage (mg/kg) Causing Complete Kill of Larvae of Secondary Screw Worms
Description: as §1

Spider mites [9] = settings: two-spotted spider mite, in vivo, 48 h
Bean aphids [10] = settings: bean aphid, in vivo, 48 h
Sclerotium = Sclerotium soil fungicide test; type: in vivo; settings: Table III; 100 lb/acre
Description: Sterilized soil was inoculated with Solerotium and placed into a 4-ounce "Dixie cup", and drenched with 20 ml. of an emulsion of the test chemical. The cup was then incubated for 2 days at 70° F. Thereafter, the amount of mycelial growth on the soil surface was rated and the control by the chemical estimated accordingly.

[11] = test system: powdery mildew fungus (Erysiphe Polygoni); assay: Bean Powdery Mildew eradicant test; type: in vivo; settings: Table III; 200 ppm
Corn rootworm larvae [12] = settings: in vivo, 120 h
[13] = test system: bean rust fungus (Uromyces Phaseoli); assay: Bean Rust eradicant test; type: in vivo; settings: Table III; 200 ppm
Description: In these tests, the experimental compounds were tested in aqueous emulsions, prepared in the same manner as was previously described above with respect to the insecticidal and miticidal tests.
Pinto bean plants with fully expanded primary leaves were inoculated with spores of the bean rust fungus (Uromyces Phaseoli) and incubated for 24 hours. The test were then carried out as described above for Bean Powdery Mildew.

[14] = test system: bean rust fungus (Uromyces Phaseoli); assay: Bean Rust systemic eradicant test; type: in vivo; settings: Table III; 200 ppm
Description: Pinto bean plants were inoculated 24 hours prior to use as above and the soil in the pot was then treated with 20 ml. of an emulsion of the test chemical. The rest of the test and the evaluation were then carried out an above for Bean Powdery Mildew.

[15] = read-out: Mortality, % - Mexican Bean Beetle
[16] = read-out: Mortality, % - Mexican Bean Beetles

For `CCOP(=O)(SCCSCC)SC(C)(C)C` (stereo not shown) [Example 10, O-Ethyl S-t-Butyl S'-2-Ethylthioethyl Dithiophosphate], the thermal stability [1] was “thermally highly unstable”, the “thermal stability on gas chromatographic analysis” value ([1]; injector temperature of 200° C) was “decomposed to yield isobutylene” and the mortality at 50 ppm (Southern army worm [2]) was 0%. The mortality at 100 ppm (Southern army worm [2]) was 0%.
For `CCCSP(=O)(OCC)SCSCC` (stereo not shown) [Example 11, O-Ethyl S-1-Propyl S'-Ethylthiomethyl Dithiophosphate], the “Southern Army Worm Mortality, %” value (Southern army worm [3]) was 100%, the mortality at 100 ppm (Mexican bean beetle) was 100% and the IC50 (bovine cholinesterase) was 2.7 µM. The “stability (nmr)” value ([1]; 60° C) was “slowly decomposing”, the mortality at 20 ppm (House fly) was 100% and the “Nematodes Rate, Control after 1-4 weeks (at 25#/acre)” value (“Nematodes Rate, Control” for short) (Root-knot nematode) was 100. The mortality at 2.5 ppm (Corn rootworm larvae [4]) was 100%.
With `CCCSP(=O)(OCC)SCC(C)SC` (stereo not shown) [drawing 57] the “Number of Infested Corn Ears (150 Ears Sampled)” value (from here on “Number of Infested Corn Ears”) (Corn earworm) was 4.
For `CCOP(=S)(OCC)SCSCC` [Thimet, reference compound], the “Southern Army Worm Mortality, %” value (Southern army worm [3]) was 0%, the mortality at 100 ppm (Mexican bean beetle) was 90% and the IC50 (bovine cholinesterase) was 31 µM. The mortality at 20 ppm (House fly) was 90%, the “Nematodes Rate, Control” value (Root-knot nematode) was 0 and the mortality at 2.5 ppm (Corn rootworm larvae [4]) was 100%.
With `CCCSP(=O)(OCC)SCSc1ccc(Cl)cc1` (stereo not shown) [Example 31, O-Ethyl S-1-Propyl S'-4-Chlorophenyllthiomethyl Dithiophosphate] the “Southern Army Worm Mortality, %” value (Southern army worm [3]) was 100%, the mortality at 100 ppm (Mexican bean beetle) was 100% and the IC50 (bovine cholinesterase) was 0.0041 µM. The mortality at 20 ppm (House fly) was 100%, the “Nematodes Rate, Control” value (Root-knot nematode) was 100 and the mortality at 2.5 ppm (Corn rootworm larvae [4]) was 0%.
For `CCCSP(=O)(OCC)SCC[S+](C)[O-]` (stereo not shown) [drawing 56], the “Number of Infested Corn Ears” value (Corn earworm) was 0.
Work on `CCCSP(=O)(OCC)SCC[S+](C)[O-]` (stereo not shown) [Example 6, O-Ethyl S-1-Propyl S'-2-Methylsulfinylethyl Dithiophosphate] yielded a mortality at 250 ppm (Mexican bean beetle; [15]) of 100%, a mortality at 250 ppm (Spider mites [5]) of 100% and a minimal effective dose (Lone Star Ticks; oral) of 50 mg/kg. It also gave a minimal effective dose (Lone Star Ticks; sc, subcutaneous) of 50 mg/kg, a mortality at 250 ppm (Spider mites [6]) of 100% and a mortality at 250 ppm (Southern army worm [2]) of 100%. It also gave a mortality at 250 ppm (Bean aphids [7]) of 100%, an LD50 at 336 h (in vivo) of 46 mg/kg and a minimal effective dose (Black Blow Flies; oral) of 50 mg/kg. For the same molecule, the minimal effective dose (Black Blow Flies; sc, subcutaneous) was 50 mg/kg, the mortality at 250 ppm (Bean aphids [8]) was 100% and the minimal effective dose (Secondary Screw Worms; oral) was 100 mg/kg. The minimal effective dose (Secondary Screw Worms; sc, subcutaneous) was 50 mg/kg and the “Nematode Control,% at 25 lb/acre” value (Root-knot nematode) was 100%.
For `CCCSP(=O)(OCC)SCCSCC` (stereo not shown) [Example 30, O-Ethyl 1-Propyl S'-2-Ethylthioethyl Dithiophosphate], the “Southern Army Worm Mortality, %” value (Southern army worm [3]) was 100%, the mortality at 50 ppm (Mexican bean beetle) was 100% and the mortality at 250 ppm (Mexican bean beetle; [16]) was 100%. For the same molecule, the mortality at 250 ppm (Spider mites [5]) was 100%, the mortality at 250 ppm (Spider mites [6]) was 100% and the IC50 (bovine cholinesterase; read-out: Cholinesterase Inhibiting conc. LD50, Mole/Liter, 30 min) was 1.1 µM. For the same molecule, the mortality at 50 ppm (Southern army worm [2]) was 80%, the mortality at 100 ppm (Southern army worm [2]) was 100% and the mortality at 250 ppm (Southern army worm [2]) was 100%. The mortality at 250 ppm (Bean aphids [7]) was 100%, the LD50 at 336 h (in vivo) was 318 mg/kg and the mortality at 20 ppm (House fly) was 100%. The mortality at 250 ppm (House fly) was 100%, the mortality at 250 ppm (Bean aphids [8]) was 90% and the “Nematodes Rate, Control” value (Root-knot nematode) was 100. For the same molecule, the mortality at 2.5 ppm (Corn rootworm larvae [4]) was 20%.
In the case of `CCOP(=O)(SCC(C)C)SC[S+]([O-])CC` (stereo not shown) [ethylsulfinylmethyl ester, O-ethyl S-isobutyl S'-ethylsulfinylmethyl dithiophosphate], the thermal stability [1] is reported as “thermal instability”.
Molecule `CCCSP(=O)(OCC)SCCSc1ccccc1` (stereo not shown) [Example 4, O-Ethyl S-1-Propyl S-2-Phenylthioethyl Dithiophosphate] has a mortality at 250 ppm (Mexican bean beetle; [16]) of 100%, a mortality at 250 ppm (Spider mites [5]) of 100% and a minimal effective dose (Lone Star Ticks; oral) greater than 100 mg/kg. It also gave a minimal effective dose (Lone Star Ticks; sc, subcutaneous) greater than 100 mg/kg, a mortality at 250 ppm (Spider mites [6]) of 40% and a mortality at 250 ppm (Southern army worm [2]) of 100%. The mortality at 250 ppm (Bean aphids [7]) was 95%, the mortality at 250 ppm (House fly) was 95% and the minimal effective dose (Black Blow Flies; oral) was greater than 100 mg/kg. For the same molecule, the minimal effective dose (Black Blow Flies; sc, subcutaneous) was greater than 100 mg/kg, the mortality at 250 ppm (Bean aphids [8]) was 20% and the minimal effective dose (Secondary Screw Worms; oral) was greater than 100 mg/kg. The minimal effective dose (Secondary Screw Worms; sc, subcutaneous) was greater than 100 mg/kg.
For `CCCSP(=O)(OCC)SCCSC` (stereo not shown) [Example 1, O-Ethyl S-1-Propyl S'-2-Methylthioethyl Dithiophosphate], the “Mortality, % - Southern ArmyWorm” value (Southern army worm [3]) was 100%, the “Mortality, % - Spider Mites Contact” value (Spider mites [9]) was 100% and the mortality at 250 ppm (Mexican bean beetle; [15]) was 100%. It also gave a mortality at 250 ppm (Mexican bean beetle; [16]) of 100%, a mortality at 250 ppm (Spider mites [5]) of 100% and a minimal effective dose (Lone Star Ticks; oral) of 50 mg/kg. For the same molecule, the minimal effective dose (Lone Star Ticks; sc, subcutaneous) was 50 mg/kg, the mortality at 250 ppm (Spider mites [6]) was 100% and the mortality at 250 ppm (Southern army worm [2]) was 100%. For the same molecule, the mortality at 250 ppm (Bean aphids [7]) was 100%, the LD50 at 336 h (in vivo) was 46 mg/kg and the mortality at 250 ppm (House fly) was 100%. The “Mortality, % - Bean Aphids Contact” value (Bean aphids [10]) was 100%, the minimal effective dose (Black Blow Flies; oral) was 50 mg/kg and the minimal effective dose (Black Blow Flies; sc, subcutaneous) was 50 mg/kg. It also gave a mortality at 250 ppm (Bean aphids [8]) of 95%, a minimal effective dose (Secondary Screw Worms; oral) of 50 mg/kg and a minimal effective dose (Secondary Screw Worms; sc, subcutaneous) of 50 mg/kg. For the same molecule, the “Nematode Control,% at 25 lb/acre” value (Root-knot nematode) was 90%.
With `CCCSP(=O)(OCC)SC[S+]([O-])CC` (stereo not shown) [ethyl sulfinylmethyl product] the “stability (nmr)” value ([1]; room temperature) was “unstable”.
In the case of `CCCSP(=O)(OCC)SCCSC` (stereo not shown) [drawing 55], the “Number of Infested Corn Ears” value (Corn earworm) is reported as 2.
In the case of `CCOP(=S)(OCC)SCCSCC` [Disyston, reference compound], the “Southern Army Worm Mortality, %” value (Southern army worm [3]) is reported as 0%, the mortality at 50 ppm (Mexican bean beetle) is reported as 30% and the IC50 (bovine cholinesterase) is reported as 380 µM. The LD50 at 336 h (in vivo) was 25 mg/kg, the mortality at 20 ppm (House fly) was 100% and the “Nematodes Rate, Control” value (Root-knot nematode) was 0. For the same molecule, the mortality at 2.5 ppm (Corn rootworm larvae [4]) was 0%.
With `CCOP(=O)(SCC)SCC(C)SCC` (stereo not shown) [Example 29, O,S-Diethyl S'-2-Ethylthiopropyl Dithiophosphate] the “Control of Sclerotium, %” value (Sclerotium) was 0%, the “Control of Foliar Fungi, % - Bean Mildew Eradicant” value [11] was 0% and the “Pest Control, % - Corn Rootworm (0.25 ppm)” value (Corn rootworm larvae [12]) was 20%. The “Control of Foliar Fungi, % - Bean Rust Eradicant” value [13] was 0%, the “Control of Foliar Fungi, % - Bean Rust Systemic Eradicant” value [14] was 0% and the “Pest Control, % - Nematode Control (25 lb/acre)” value (Root-knot nematode) was 20%.
